Consider three molecules from US8067382B2, “Anthelmintic composition” (Merial Limited, priority 2002, dated 2011).

Series [1] is described as follows: Stability trial of Formulation 1 stored at ambient for 11 months, HPLC assay of actives. The class given is physicochemical. As for the experimental part: A stability trial was conducted to ensure that the triclabendazole solution was stable. A formulation made as described in example 1 (“Formulation 1”) was stored at ambient for 11 months. At the conclusion of the storage period samples were tested for total abamectin and triclabendazole levels. [table]

The subject of series [2] is liver flukes. Conditions: background statement; cited from earlier work.
For series [3] the following is noted: background statement; cited from earlier work.

On to Abamectin, for which the “Loss in activity after storage” value in series [1] is “no loss in activity”.
`CCCSc1ccc2nc(NC(=O)OC)[nH]c2c1` [Albendazole]: in series [2], the “Efficacy against liver flukes by life cycle stage” value is on record as “only effective against adult flukes”.
`CSc1nc2cc(Cl)c(Oc3cccc(Cl)c3Cl)cc2[nH]1` [triclabendazole, 5-Chloro-6-(2,3-dichlorophenoxy)-2-methylthio-1H-benzimidazole]: the Solubility result in series [3] was “highly insoluble”. For the same molecule, in series [1], the “Loss in activity after storage” value is listed as “no loss in activity” and the “Physical stability of the solution after storage” value is reported as “remained in solution”. Further, the “Efficacy against liver flukes by life cycle stage” value in series [2] is given as “highly effective against liver flukes at all stages of their life cycle”.
